From patent US10722505B2, “Substituted 2,4 diamino-quinoline as new anticancer agents” (GENOSCIENCE PHARMA, priority 2014, dated 2020) come the findings set out here.

Molecules are shown by their SMILES. Structures can show the parent of a compound that is named as a salt.

The EC50 is the concentration that produces a half-maximal response. Read a high EC50 as a need for much substance.

Experiment [1] relates to A375 cell line. The experiment can be described thus: CellTiter-Glo growth inhibition assay, A375. Type of experiment: cell-based. As to conditions: Homo sapiens, A-375; A375, malignant melanoma, 72 h. On the procedure: All cell lines were maintained in medium containing 1% penicillin-streptomycin (Dutscher, P06-07100) and 10% Fetal Bovine Serum (Gibco, W3387L) except 20% for KG-1 cell line and PBMC, and cultured at 37° C. with 5% CO2.
HepG2, Huh7, HCT-116, MDA-MB-231 and A375 cell lines were cultured in Dulbecco's modified Eagle's medium (Dutscher, L0103).
Cell viability was measured using the CellTiter-Glo® luminescent cell viability assay as described by the manufacturer (Promega, Ref G7571) using an Infinite F200Pro luminometer (Tecan). Briefly, for adherent cells, cells were plated onto 96-well plates (white with clear bottom) in 90 μL of media per well and were allowed to grow overnight before the assay. For cells growing in suspension, cells were plated onto 96-well plates immediately before the assay.
Compounds were added at different concentrations to each well, and cell cultures were incubated for 72 h. Vehicle (H2O) was used as a control, and all compounds were tested in a constant percentage of H2O. After addition of 100 μL of CellTiter-Glo®, luminescence was measured using an Infinite F200Pro (Tecan). EC50 values were determined as the dose of compound required to reduce luminescent values to 50% of the signal obtained for untreated cell cultures. The experimental data were analyzed using a computer program, Graphpad Prism v5 (GraphPad Software, Inc. La Jolla, Calif.). […]

The subject of experiment [2] is Hep3B-Luc cell line. Description: CellTiter-Glo growth inhibition assay, Hep3B-Luc. Type of experiment: cell-based. The settings on record: Homo sapiens, Hep 3B-Luc, 72 h. On the procedure: Before compound treatment, the compound was dissolved in H2O to make a 10 mM stock solution. The working solutions (5 folds final concentrations) were then prepared with MEM medium (Gibco, 1128319) containing 10% Fetal Bovine Serum (Gibco, 10099141).
Hep3B-Luc cell line (luciferase transfected human liver carcinoma cell line for orthotopic tumor model) was cultured in MEM Medium supplemented with 10% v/v Fetal Bovine Serum (FBS), 1% Penicillin-Streptomycin and maintained at 37° C. with 5% CO2. 800 cells were plated onto 384-well flat clear bottom white (Corning, 3707).
Cells in log-phase are collected and counted. Cell suspensions are added to each well of 384-well plate at 800 cells per well (total volume 40 μl). The margin wells are filled with PBS buffer. Test compound at various concentrations are added in duplicates (add 10 μl 5× compound solutions to the plate). The assay plate is incubated for 72 h in 37° C./5% CO2 incubator. Cell viability was measured using the CellTiter-Glo® luminescent cell viability assay as described by the manufacturer (Promega, Ref G7571). After addition of 100 μL of CellTiter-Glo® reactifs solution, luminescence was measured using a PHERAstar Plus luminometer. Data were recorded by PHERAstar Plus, Data acquisition and analysis were performed using Microsoft Excel program and GraphPad Prism v.6 software.
Background: In ATP-based viability assays light output follows the ATP content of the culture.

The test system of experiment [3] is CPP36 liver metastatic CRC patient-derived cells. Description: CellTiter-Glo growth inhibition, liver metastatic CRC patient-derived cells CPP36. Type of experiment: cell-based. As to conditions: Homo sapiens; CPP36, 72 h. The source says: Patient derived liver metastasis cells (CPP19, 30, 36 and CPP45—see table 1 for clinical descriptions) were maintained in complete DMEM (Gibco) with 10% FBS. Cells were obtained from biopsies provided by CHU-Caremeau (Nimes, France) within an approved protocol. Signed informed consents were obtained from patients prior to samples acquisition in accordance with all ethical and legal aspects. Tumors were washed, minced into fragments (<2 mm^3) and digested with liberase H (0.26 U/mL, Roche) resuspended in Accumax (Sigma-Aldrich). After 2 hours at 37° C., cell suspension was filtered through a […] to obtain a single cell suspension and plated in DMEM medium, supplemented with FBS, glutamine, antibiotics and non-essential aminoacids. When a monolayer of patient-derived tumor cells was formed, cells were detached using trypsin/EDTA and resuspended in DMEM with 10% FBS (for adherent cells) or defined M11 media (for sphere formation). Cells were cultured in a humidified atmosphere at 37° C. and 5% CO2.
Cells were plated at 10^4 cells per well in P96 well plates in DMEM with 10% FBS. After 24 hours, cells were treated with compound 2-3 and cell viability was assessed 72 h post-treatment by CellTiter-Glo® Luminescent Cell Viability Assay (Promega). EC50 were calculated using GraphPad Prism Software v6 (Graphpad Software, Inc La Jolla, Calif.). […]

Experiment [4] relates to LI0050 HCC patient derived cells. The experiment can be described thus: CellTiter-Glo growth inhibition, HCC patient-derived cells LI0050. Type of experiment: cell-based, human. As to conditions: Homo sapiens; LI0050, 72 hours. How it is done:
(§1) The patient derived Hepatocellular Carcinoma (HCC) cells were maintained in medium respectively described in table 15 containing 1% penicillin-streptomycin (Life Technologies, 15070-063), with a supplements for primary cell culture (PCS) containing hydrocortisone (50 nM), Epidermal Growth Factor (20 ng/ml), β-fibroblast Growth Factor (10 ng/ml), Heparin (2 μg/ml) ITS liquid media supplement (1×) and non-essential amino acid (NEAA, 0.01 mM, 1×). The primary cell were cultured in a humidified atmosphere (95% relative humidity) with 5% CO2 at 37° C.
(§2) The cell growth inhibition assay was performed as described previously in example 5 using the CellTiter-Glo® luminescent cell viability assay as described by the manufacturer (Promega, Ref G7571). The number of cells seeded per well (in 96-Well Flat Clear Bottom Black Polystyrene TC-Treated Microplates, Cat #3340, Corning®) is described in the table 16. A backseal black sticker (Cat #6005189, Perkin Elmer) was placed to the bottom of each plate before recording CellTiter-Glo® luminescence.
(§3) The experimental data are analyzed using a computer program, Graphpad Prism V 5.0 (GraphPad Software, Inc. La Jolla, Calif.) and EC50 values were determined as the dose of compound required to reduce absorbance values to 50% of the signal obtained for vehicle treated cell cultures and were a mean of at least three independent experiments.

Experiment [5] concerns LI0801 HCC patient derived cells. Description: CellTiter-Glo growth inhibition, HCC patient-derived cells LI0801. It is filed as cell-based, human. The settings on record: Homo sapiens; LI0801, 72 hours. On the procedure:
as §1, §2, §3

In the case of `CC(C)(C)NC1CCN(c2cc(NCc3ccc(Cl)cc3)nc3ccccc23)CC1` [Compound 2-3, 2-(4-chlorobenzylamino)-4-(4-tert-butylaminopiperidin-1-yl)-quinoline hydrochloride salt], the EC50 in experiment [1] stood at 1000 nM; in experiment [2] it was 1100 nM; in experiment [3], 1450 nM; in experiment [4] it was 3500 nM; in experiment [5], 2100 nM.
